{"source": "patent US12128018B2", "about": "“Combination of a selective histone deacetylase 3 (HDAC3) inhibitor and an immunotherapy agent for the treatment of cancer” (KDAc Therapeutics, Inc., priority 2018, dated 2024)", "key": {"[1]": {"experiment": "tolerability and exposure relative to NOAEL"}, "[2]": {"test_system": "P388D1 cells and RENCA cells", "experiment": "cytotoxicity, percent of viable cells", "format": "cell-based, murine", "settings": "various concentrations (FIG. 4)"}, "[3]": {"test_system": "Twenty-six syngeneic cells lines", "experiment": "viability of syngeneic cell lines", "format": "cell-based", "settings": "10 μM"}, "[4]": {"test_system": "MHC class II (IA-IE) in RENCA cells", "experiment": "in vitro induction of MHC class II (IA-IE) in RENCA cells (FACS)", "format": "cell-based, murine", "protocol": "(§1) Cell Culture and Compound Treatment for MHC II Induction\n(§2) Human and murine tumor cell lines were obtained from the Shanghai Institutes for Biological Sciences (SIBS) or American Type Culture Collection (ATCC) and maintained in a humidified 5% CO2 incubator at 37° C. All of the human cell lines were derived from human B cell lymphomas: OCI-Ly19, OCI-Ly7, OCI-Ly18, RL, SU-DHL6, and MD901. The murine tumor cell lines were of varied origin: CT-26 (colon carcinoma), RENCA (renal cell carcinoma), P388D1 (lymphoblast of monocytes and macrophages), MPC-11 (plasmacytoma, myeloma), L5178 (thymic lymphoma), and J588 (plasmacytoma, myeloma).\n(§3) On Day 0, T25 flasks were seeded at the following cell densities:\n(§4) On Day 1, cells were treated with I-1 compound diluted in DMSO/PBS (final concentration of DMSO in the media was 0.19%). The cells were treated with I-1 compound for 72 hours. The adherent cells were dissociated with 1 mL/T25 flask of Cell Dissociation buffer (GIBCO) at 37° C. Four mL of culture media was added to each flask, samples were aliquoted FACS analysis. […]\n(§5) Cells were counted to determine cell number and viability with Vi-cell (Beckman). […]\n(§6) Cells were incubated for 1 hour at 4° C., protected from light. […] Samples were analyzed immediately using FACS machine. The data were analyzed with BD Accuri C6 software and FlowJo_V10."}, "[5]": {"experiment": "plasma exposure (PK)", "format": "in vivo", "settings": "FIG. 13", "protocol": "1) For pharmacokinetics (PK): 2 hrs after the first treatment, satellite time point (Day 11) and after the final time point (Day 14) 100 μl blood was collected from the I-1 treatment groups (3 mice/group), then centrifuged to get about 50 μl plasma for PK analysis."}, "[6]": {"biological_target": "HDAC2 (Homo sapiens (Human), UniProt Q92769)", "sequence (Q92769 whole entry, species assumed)": "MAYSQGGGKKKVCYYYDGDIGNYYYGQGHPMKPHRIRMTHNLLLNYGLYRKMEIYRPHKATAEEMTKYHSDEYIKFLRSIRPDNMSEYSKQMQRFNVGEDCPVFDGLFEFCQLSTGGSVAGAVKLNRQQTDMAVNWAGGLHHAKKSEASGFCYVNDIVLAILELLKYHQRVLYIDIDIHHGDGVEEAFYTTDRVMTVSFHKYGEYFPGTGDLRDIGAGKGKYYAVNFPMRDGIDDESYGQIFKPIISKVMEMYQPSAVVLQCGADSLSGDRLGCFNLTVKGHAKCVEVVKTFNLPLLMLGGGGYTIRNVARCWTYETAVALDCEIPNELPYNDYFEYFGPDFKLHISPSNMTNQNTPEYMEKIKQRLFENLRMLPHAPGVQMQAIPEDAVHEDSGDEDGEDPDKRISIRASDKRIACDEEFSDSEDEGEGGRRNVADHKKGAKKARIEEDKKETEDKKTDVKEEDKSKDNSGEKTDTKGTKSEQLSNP", "experiment": "non-trypsin coupled in-vitro HDAC enzymatic endpoint assay (Caliper LabChip EZ-Reader)", "format": "biochemical", "settings": "3 hrs preincubation, Substrate A 2 μM", "procedure": "(§7) In some experiments, the following non-trypsin coupled in-vitro HDAC enzymatic endpoint assay was used to assay the compounds described herein. Below is a standardized protocol for running HDAC selectivity panel on Caliper LabChip EZ-Reader Instrument.\n(§8) Substrate A was prepared as 2 mM in DMSO. Its final concentration in the assay for HDACs 1,2,3,6 is 2 μM.\n(§9) LBH was used as quench inhibitor to stop the reaction at the end point.\n(§10) The protocol was carried out as follows: • 1. Caliper LabChip and 1 μM Marker (peptide substrate in separation buffer) were prepared for instrument run. • 2. Warm up Caliper HAB buffer to room temperature • 3. […] Add 10 μl 3× solution acetylated substrate to initiate the reaction for 50 minutes. • 5. […] Mix plate • 7. Read plate on EZ Reader instrument. Separate substrate and product peaks by capillary electrophoresis and read fluorescence from both substrate and product. • 8. Run parameters were as follows:"}, "[7]": {"test_system": "MHC class II (IA-IE) in P388D1 cells", "experiment": "in vitro induction of MHC class II (IA-IE) in P388D1 cells (FACS)", "format": "cell-based, murine", "protocol": "as §1, §2, §3\nOn Day 1, cells were treated with I-1 compound diluted in DMSO/PBS (final concentration of DMSO in the media was 0.19%). The cells were treated with I-1 compound for 72 hours. The adherent cells were dissociated with 1 mL/T25 flask of Cell Dissociation buffer (GIBCO) at 37° C. Four mL of culture media was added to each flask, samples were aliquoted FACS analysis. For suspension cells, samples were aliquoted into 50 mL conical tubes for FACS analysis.\nFACS Detection of MHC II on Human and Murine Cells (IA/IE on Murine Cells)\nCells were counted to determine cell number and viability with Vi-cell (Beckman). After washing once with 10 mL cold FACS staining buffer (PBS+0.2% BSA), liquid was aspirated and the cells were resuspended in enough cold FACS staining buffer to reach a final cell density of ˜1×10^7 viable cells/mL. 50 μL/well (˜500 k/well) of cells were added to a 96-well u-bottomed plate and the cells were stained as follows, according to manufacturer's instructions: • Sample 1: Unstained • Sample 2: stained with anti MHC II antibody (PE anti-human HLA-DR, Clone: G46-6, Becton Dickinson; PE anti-mouse I-A/I-E, Clone: M5/114.15.2, Becton Dickinson) • Sample 3: stained with isotype control\nas §6"}, "[8]": {"biological_target": "HDAC1 (Homo sapiens (Human), UniProt Q13547)", "sequence (Q13547 whole entry, species assumed)": "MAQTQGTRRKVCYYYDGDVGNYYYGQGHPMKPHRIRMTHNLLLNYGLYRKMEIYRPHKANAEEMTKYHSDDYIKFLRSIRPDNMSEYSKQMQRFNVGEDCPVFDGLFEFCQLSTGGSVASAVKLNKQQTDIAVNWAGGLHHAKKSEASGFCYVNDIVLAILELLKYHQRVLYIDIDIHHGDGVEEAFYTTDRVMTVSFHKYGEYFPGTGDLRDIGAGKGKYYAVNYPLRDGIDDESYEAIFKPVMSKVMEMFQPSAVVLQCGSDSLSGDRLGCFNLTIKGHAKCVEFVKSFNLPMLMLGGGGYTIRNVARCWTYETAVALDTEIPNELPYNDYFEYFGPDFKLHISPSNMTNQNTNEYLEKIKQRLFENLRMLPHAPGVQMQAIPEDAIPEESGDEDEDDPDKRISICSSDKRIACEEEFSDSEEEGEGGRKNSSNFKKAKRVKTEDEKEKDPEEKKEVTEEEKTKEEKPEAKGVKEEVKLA", "experiment": "non-trypsin coupled in-vitro HDAC enzymatic endpoint assay (Caliper LabChip EZ-Reader)", "format": "biochemical", "settings": "3 hrs preincubation, Substrate A 2 μM", "procedure": "as §7, §8, §9, §10"}, "[9]": {"biological_target": "HDAC3 (Homo sapiens (Human), UniProt O15379)", "sequence (O15379 whole entry, species assumed)": "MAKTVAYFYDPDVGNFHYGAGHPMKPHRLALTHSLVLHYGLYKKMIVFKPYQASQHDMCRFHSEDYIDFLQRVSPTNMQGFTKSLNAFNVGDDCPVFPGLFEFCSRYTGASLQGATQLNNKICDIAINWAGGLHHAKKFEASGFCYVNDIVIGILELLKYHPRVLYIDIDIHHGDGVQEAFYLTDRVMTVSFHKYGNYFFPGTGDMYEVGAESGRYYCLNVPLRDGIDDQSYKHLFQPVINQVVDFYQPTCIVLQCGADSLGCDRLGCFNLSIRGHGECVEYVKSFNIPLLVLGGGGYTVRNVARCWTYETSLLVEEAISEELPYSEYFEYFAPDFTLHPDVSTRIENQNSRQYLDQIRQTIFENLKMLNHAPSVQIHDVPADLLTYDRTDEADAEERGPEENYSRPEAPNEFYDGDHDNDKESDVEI", "sequence (Q9Y618 395-489 partner, species assumed)": "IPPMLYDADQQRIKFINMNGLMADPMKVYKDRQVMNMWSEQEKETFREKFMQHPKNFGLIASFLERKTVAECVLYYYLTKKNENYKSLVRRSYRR", "experiment": "non-trypsin coupled in-vitro HDAC enzymatic endpoint assay (Caliper LabChip EZ-Reader)", "format": "biochemical", "settings": "3 hrs preincubation, Substrate A 2 μM", "procedure": "as §7, §8, §9, §10"}, "[10]": {"test_system": "MHC Class II expression across multiple cell lines", "experiment": "FACS detection of MHC II on human and murine tumor cell lines", "format": "cell-based", "settings": "72 hours treatment (FIG. 1)", "protocol": "as §1, §2, §3, §4, §5, §6"}}, "data": [{"smiles": "CC(=O)Nc1ccc(C(=O)Nc2ccc(F)cc2N)cc1", "note": "[Compound I-1]", "values": [{"measurement": "tolerability", "setting": "[1]; 25 and 50 mg/kg, orally, BID", "value": "well tolerated"}, {"measurement": "tolerated exposures relative to tolerated dose of a clinical HDAC 1,2,3 inhibitor", "setting": "[1]; FIG. 13", "value": "greater than 4 ×"}, {"measurement": "levels showing efficacy relative to NOAEL (no adverse effect level)", "setting": "[1]; rat NOAEL, FIG. 13", "value": "below rat NOAEL"}, {"measurement": "cytotoxicity (percent of viable cells)", "setting": "[2]", "value": "generally not cytotoxic"}, {"measurement": "impact on viability", "setting": "[3]", "value": "minimal impact on viability"}, {"measurement": "fold more cells positive for MHC class II (IA-IE)", "setting": "[4]; 1 μM I-1", "value": "about 2 ×"}, {"measurement": "fold more cells positive for MHC class II (IA-IE)", "setting": "[4]; 3 μM I-1", "value": "about 6 ×"}, {"measurement": "plasma exposure", "setting": "[5]", "value": "above K, and below NOAEL"}, {"measurement": "IC50", "setting": "[6]", "value": 1510, "unit": "nM"}, {"measurement": "fold more cells positive for MHC class II (IA-IE)", "setting": "[7]; 120 nM I-1", "value": "about 4 ×"}, {"measurement": "fold more cells positive for MHC class II (IA-IE)", "setting": "[7]; 3 μM I-1", "value": "about 13 ×"}, {"measurement": "IC50", "setting": "[8]", "value": 2190, "unit": "nM"}, {"measurement": "IC50", "setting": "[9]", "value": 61, "unit": "nM"}, {"measurement": "increase in MHC Class II expression", "setting": "[10]", "value": "20-100%"}]}, {"smiles": "Nc1cc(F)ccc1NC(=O)/C=C/c1cnn(C/C=C/c2ccccc2)c1", "note": "[RGFP966, reference compound]", "values": [{"measurement": "MHC class II protein levels (geometric mean MFI)", "setting": "[7]; various concentrations (FIGS. 14 and 15)", "value": "capable of increasing MHC class II protein levels"}]}]}
